{"source": "patent US11542240B2", "about": "“STK19 inhibitors for treatment of cancer” (TRUSTEES OF BOSTON UNIVERSITY, priority 2018, dated 2023)", "experiment_in_all_cases": "biochemical", "format_in_all_cases": "binding", "key": {"[1]": {"target": "panel of 468 diverse kinases (Homo sapiens, UniProt O14976)", "details": "GAK; 1000 nM; read-out: Percent Control"}, "[2]": {"target": "panel of 468 diverse kinases (Homo sapiens, UniProt O15264)", "details": "p38-delta; 1000 nM; read-out: Percent Control"}, "[3]": {"target": "panel of 468 diverse kinases (Homo sapiens, UniProt O60331)", "details": "PIP5K1C; 1000 nM; read-out: Percent Control"}, "[4]": {"target": "panel of 468 diverse kinases (Homo sapiens, UniProt O75716)", "details": "STK16; 1000 nM; read-out: Percent Control"}, "[5]": {"target": "panel of 468 diverse kinases (Homo sapiens, UniProt P00533, DEL746-750)", "sequence (P00533 with tags, fused parts or gaps DEL746-750 limits assumed)": "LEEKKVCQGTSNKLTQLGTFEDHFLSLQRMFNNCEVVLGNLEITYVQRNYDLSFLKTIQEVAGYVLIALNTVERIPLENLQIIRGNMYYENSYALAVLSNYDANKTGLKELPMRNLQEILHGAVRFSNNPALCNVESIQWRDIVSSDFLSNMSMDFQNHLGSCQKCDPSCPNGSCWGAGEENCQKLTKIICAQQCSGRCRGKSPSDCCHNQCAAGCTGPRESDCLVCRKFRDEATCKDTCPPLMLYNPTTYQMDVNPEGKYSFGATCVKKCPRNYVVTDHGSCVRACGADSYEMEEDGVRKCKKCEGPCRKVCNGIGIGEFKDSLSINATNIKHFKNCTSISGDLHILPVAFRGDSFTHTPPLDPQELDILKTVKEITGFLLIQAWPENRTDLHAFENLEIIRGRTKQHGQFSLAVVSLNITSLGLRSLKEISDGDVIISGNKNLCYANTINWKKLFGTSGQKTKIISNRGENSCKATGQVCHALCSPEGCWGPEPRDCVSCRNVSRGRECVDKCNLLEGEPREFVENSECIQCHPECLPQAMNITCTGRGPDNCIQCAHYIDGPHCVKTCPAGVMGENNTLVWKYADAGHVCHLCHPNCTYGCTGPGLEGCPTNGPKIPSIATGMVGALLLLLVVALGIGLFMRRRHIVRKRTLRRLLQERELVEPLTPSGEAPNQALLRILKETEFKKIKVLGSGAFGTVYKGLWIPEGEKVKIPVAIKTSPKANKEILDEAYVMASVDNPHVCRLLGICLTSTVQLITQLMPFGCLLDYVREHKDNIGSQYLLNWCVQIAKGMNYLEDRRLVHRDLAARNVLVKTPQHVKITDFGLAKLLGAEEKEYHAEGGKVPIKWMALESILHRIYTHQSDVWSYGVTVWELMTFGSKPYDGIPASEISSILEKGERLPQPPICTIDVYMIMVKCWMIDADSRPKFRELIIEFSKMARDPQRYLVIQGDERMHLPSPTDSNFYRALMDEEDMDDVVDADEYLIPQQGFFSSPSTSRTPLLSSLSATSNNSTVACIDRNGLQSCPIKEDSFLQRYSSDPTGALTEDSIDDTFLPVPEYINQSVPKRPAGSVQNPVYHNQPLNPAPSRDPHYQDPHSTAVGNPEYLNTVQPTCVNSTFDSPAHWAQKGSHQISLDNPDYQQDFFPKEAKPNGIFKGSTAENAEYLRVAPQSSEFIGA", "details": "EGFR(E746-A750del); 1000 nM; read-out: Percent Control"}, "[6]": {"target": "panel of 468 diverse kinases (Homo sapiens, UniProt P00533, G719S)", "sequence (P00533 25-1210 G719S limits assumed)": "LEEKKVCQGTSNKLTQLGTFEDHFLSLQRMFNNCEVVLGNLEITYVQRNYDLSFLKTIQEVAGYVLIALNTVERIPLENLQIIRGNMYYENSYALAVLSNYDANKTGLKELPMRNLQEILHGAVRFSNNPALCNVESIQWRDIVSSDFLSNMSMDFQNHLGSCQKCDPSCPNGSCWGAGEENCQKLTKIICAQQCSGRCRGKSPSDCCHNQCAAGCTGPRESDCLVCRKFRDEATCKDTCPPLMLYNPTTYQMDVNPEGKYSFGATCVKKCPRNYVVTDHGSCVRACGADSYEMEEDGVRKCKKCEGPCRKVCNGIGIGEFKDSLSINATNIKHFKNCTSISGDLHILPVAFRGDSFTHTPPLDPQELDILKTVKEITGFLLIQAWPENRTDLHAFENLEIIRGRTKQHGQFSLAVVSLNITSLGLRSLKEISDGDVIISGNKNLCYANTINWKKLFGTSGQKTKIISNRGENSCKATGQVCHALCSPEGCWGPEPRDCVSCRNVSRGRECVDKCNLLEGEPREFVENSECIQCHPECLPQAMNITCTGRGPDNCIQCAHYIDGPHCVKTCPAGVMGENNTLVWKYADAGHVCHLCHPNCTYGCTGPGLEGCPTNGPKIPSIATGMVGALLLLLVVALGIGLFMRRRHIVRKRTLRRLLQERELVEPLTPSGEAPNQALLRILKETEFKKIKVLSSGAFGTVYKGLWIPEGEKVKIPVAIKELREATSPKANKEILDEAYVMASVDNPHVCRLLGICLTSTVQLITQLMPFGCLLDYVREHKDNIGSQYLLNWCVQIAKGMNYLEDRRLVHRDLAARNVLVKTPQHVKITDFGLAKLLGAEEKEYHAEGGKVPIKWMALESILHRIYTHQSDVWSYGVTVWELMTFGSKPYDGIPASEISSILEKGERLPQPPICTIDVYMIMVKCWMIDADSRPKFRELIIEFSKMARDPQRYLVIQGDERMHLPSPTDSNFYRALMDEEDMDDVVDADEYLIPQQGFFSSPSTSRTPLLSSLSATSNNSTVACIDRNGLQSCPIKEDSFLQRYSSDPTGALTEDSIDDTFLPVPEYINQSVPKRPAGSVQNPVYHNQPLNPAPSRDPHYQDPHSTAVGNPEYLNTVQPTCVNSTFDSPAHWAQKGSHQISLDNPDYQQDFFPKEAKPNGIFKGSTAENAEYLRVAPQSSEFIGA", "details": "EGFR(G719S); 1000 nM; read-out: Percent Control"}, "[7]": {"target": "panel of 468 diverse kinases (Homo sapiens, UniProt P00533, L858R)", "details": "EGFR(L858R); 1000 nM; read-out: Percent Control"}, "[8]": {"target": "panel of 468 diverse kinases (Homo sapiens, UniProt P07333)", "sequence (P07333 20-972 limits assumed)": "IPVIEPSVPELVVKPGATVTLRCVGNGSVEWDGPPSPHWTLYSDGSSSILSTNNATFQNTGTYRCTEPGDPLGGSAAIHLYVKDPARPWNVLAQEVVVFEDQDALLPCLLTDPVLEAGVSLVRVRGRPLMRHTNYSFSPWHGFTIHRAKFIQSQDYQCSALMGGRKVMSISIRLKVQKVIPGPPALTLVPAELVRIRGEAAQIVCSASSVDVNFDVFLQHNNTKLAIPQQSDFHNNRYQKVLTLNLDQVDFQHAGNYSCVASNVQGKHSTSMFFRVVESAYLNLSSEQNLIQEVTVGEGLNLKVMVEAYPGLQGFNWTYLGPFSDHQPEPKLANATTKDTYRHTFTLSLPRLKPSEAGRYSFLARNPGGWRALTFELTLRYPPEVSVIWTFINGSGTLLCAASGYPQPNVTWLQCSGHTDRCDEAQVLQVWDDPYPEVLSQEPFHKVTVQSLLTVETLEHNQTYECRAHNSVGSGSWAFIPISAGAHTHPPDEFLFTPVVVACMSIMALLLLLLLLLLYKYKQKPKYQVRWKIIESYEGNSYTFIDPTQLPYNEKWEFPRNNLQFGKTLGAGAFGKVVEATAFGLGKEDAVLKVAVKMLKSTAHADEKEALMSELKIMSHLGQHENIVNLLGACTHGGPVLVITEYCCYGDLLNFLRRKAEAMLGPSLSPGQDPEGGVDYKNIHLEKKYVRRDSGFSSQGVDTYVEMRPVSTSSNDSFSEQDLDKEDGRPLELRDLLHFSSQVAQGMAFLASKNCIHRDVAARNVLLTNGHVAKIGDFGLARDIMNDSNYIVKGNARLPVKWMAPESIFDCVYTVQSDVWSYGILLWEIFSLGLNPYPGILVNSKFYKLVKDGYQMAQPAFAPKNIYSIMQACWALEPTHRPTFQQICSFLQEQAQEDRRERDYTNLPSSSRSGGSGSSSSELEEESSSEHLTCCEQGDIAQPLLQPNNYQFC", "details": "1000 nM, read-out: Percent Control"}, "[9]": {"target": "panel of 468 diverse kinases (Homo sapiens, UniProt P07949, V804M)", "details": "RET(V804M); 1000 nM; read-out: Percent Control"}, "[10]": {"target": "panel of 468 diverse kinases (Homo sapiens, UniProt P08581)", "details": "MET; 1000 nM; read-out: Percent Control"}, "[11]": {"target": "panel of 468 diverse kinases (Homo sapiens, UniProt P09769)", "details": "FGR; 1000 nM; read-out: Percent Control"}, "[12]": {"target": "panel of 468 diverse kinases (Homo sapiens, UniProt P11362)", "details": "FGFR1; 1000 nM; read-out: Percent Control"}, "[13]": {"target": "panel of 468 diverse kinases (Homo sapiens, UniProt P12931)", "details": "SRC; 1000 nM; read-out: Percent Control"}, "[14]": {"target": "panel of 468 diverse kinases (Homo sapiens, UniProt P36888)", "sequence (P36888 27-993 limits assumed)": "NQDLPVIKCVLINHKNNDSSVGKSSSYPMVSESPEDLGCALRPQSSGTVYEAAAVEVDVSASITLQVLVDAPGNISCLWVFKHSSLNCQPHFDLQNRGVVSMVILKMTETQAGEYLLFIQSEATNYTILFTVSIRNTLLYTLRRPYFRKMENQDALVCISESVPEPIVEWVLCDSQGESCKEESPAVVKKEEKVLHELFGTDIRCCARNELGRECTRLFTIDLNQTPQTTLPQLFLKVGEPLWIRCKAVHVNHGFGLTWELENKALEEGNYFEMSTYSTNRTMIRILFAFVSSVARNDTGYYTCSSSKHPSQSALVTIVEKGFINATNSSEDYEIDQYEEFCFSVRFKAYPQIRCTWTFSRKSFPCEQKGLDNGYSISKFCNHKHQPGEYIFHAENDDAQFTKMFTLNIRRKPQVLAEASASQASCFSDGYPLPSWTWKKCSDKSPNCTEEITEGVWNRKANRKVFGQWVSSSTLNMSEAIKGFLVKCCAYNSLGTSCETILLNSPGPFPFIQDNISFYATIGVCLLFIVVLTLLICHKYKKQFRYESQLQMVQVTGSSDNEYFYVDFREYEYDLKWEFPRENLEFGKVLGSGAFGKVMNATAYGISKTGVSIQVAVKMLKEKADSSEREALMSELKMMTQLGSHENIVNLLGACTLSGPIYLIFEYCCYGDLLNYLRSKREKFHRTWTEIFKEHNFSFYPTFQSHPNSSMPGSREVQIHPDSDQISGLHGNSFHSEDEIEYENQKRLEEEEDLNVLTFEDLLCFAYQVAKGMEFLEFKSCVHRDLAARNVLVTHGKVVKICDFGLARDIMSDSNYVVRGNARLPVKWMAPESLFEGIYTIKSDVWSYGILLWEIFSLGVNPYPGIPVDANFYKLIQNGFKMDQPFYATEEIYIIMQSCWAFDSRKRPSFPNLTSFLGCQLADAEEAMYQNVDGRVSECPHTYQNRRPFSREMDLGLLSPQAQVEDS", "details": "1000 nM, read-out: Percent Control"}, "[15]": {"target": "panel of 468 diverse kinases (Homo sapiens, UniProt P45984)", "details": "JNK2; 1000 nM; read-out: Percent Control"}, "[16]": {"target": "panel of 468 diverse kinases (Homo sapiens, UniProt P46734)", "details": "MEK3; 1000 nM; read-out: Percent Control"}, "[17]": {"target": "panel of 468 diverse kinases (Homo sapiens, UniProt P49759)", "details": "CLK1; 1000 nM; read-out: Percent Control"}, "[18]": {"target": "panel of 468 diverse kinases (Homo sapiens, UniProt P49840)", "details": "GSK3A; 1000 nM; read-out: Percent Control"}, "[19]": {"target": "panel of 468 diverse kinases (Homo sapiens, UniProt Q00532)", "details": "CDKL1; 1000 nM; read-out: Percent Control"}, "[20]": {"target": "panel of 468 diverse kinases (Homo sapiens, UniProt Q04771)", "details": "ACVR1; 1000 nM; read-out: Percent Control"}, "[21]": {"target": "panel of 468 diverse kinases (Homo sapiens, UniProt Q04912)", "details": "MST1R; 1000 nM; read-out: Percent Control"}, "[22]": {"target": "panel of 468 diverse kinases (Homo sapiens, UniProt Q14004)", "details": "read-out: Percent Control"}, "[23]": {"target": "panel of 468 diverse kinases (Homo sapiens, UniProt Q16288)", "details": "TRKC; 1000 nM; read-out: Percent Control"}, "[24]": {"target": "panel of 468 diverse kinases (Homo sapiens, UniProt Q6DT37)", "details": "DMPK2; 1000 nM; read-out: Percent Control"}, "[25]": {"target": "panel of 468 diverse kinases (Homo sapiens, UniProt Q6ZWH5)", "details": "NEK10; 1000 nM; read-out: Percent Control"}, "[26]": {"target": "panel of 468 diverse kinases (Homo sapiens, UniProt Q8TDC3)", "details": "BRSK1; 1000 nM; read-out: Percent Control"}, "[27]": {"target": "panel of 468 diverse kinases (Homo sapiens, UniProt Q9BRS2)", "details": "RIOK1; 1000 nM; read-out: Percent Control"}, "[28]": {"target": "panel of 468 diverse kinases (Homo sapiens, UniProt Q9H093)", "details": "SNARK; 1000 nM; read-out: Percent Control"}, "[29]": {"target": "panel of 468 diverse kinases (Homo sapiens, UniProt Q9H2G2)", "details": "SLK; 1000 nM; read-out: Percent Control"}, "[30]": {"target": "panel of 468 diverse kinases (Homo sapiens, UniProt Q9UBF8)", "sequence (Q9UBF8 2-816 limits assumed)": "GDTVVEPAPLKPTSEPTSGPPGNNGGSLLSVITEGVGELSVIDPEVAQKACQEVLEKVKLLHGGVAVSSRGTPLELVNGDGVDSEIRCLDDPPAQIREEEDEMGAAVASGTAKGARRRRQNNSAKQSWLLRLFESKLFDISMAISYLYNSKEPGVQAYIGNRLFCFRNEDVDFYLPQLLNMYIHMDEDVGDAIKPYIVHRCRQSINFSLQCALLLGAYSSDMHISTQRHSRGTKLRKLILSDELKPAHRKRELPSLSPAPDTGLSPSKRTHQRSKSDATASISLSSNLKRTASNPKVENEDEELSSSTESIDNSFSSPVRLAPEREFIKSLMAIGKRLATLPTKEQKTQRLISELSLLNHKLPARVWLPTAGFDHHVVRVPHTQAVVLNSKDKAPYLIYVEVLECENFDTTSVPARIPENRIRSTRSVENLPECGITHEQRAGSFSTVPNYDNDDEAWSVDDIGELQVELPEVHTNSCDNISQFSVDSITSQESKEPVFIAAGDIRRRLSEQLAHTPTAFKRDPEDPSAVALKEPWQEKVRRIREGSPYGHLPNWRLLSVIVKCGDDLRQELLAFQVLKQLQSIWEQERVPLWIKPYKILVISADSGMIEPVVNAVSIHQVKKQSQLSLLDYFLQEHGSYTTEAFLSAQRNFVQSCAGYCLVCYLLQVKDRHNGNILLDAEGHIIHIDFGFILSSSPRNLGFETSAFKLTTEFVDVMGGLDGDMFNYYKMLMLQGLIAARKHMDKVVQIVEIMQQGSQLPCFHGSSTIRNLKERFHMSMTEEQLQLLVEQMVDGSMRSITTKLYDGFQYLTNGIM", "details": "PIK4CB; 1000 nM; read-out: Percent Control"}, "[31]": {"target": "panel of 468 diverse kinases (Homo sapiens, UniProt Q9Y4K4)", "details": "MAP4K5; 1000 nM; read-out: Percent Control"}}, "note": "Like-named read-outs stand apart in the source and are kept apart here.", "data": [{"smiles": "COc1cc2nc(NC3CC3)nc(NC3CCN(C(C)C)CC3)c2cc1OC", "note": "[Formula IV]", "values": [{"measurement": "remaining activity at 1 µM", "setting": "[1]", "value": 92, "unit": "%"}, {"measurement": "remaining activity at 1 µM", "setting": "[2]", "value": 98, "unit": "%"}, {"measurement": "remaining activity at 1 µM", "setting": "[3]", "value": 100, "unit": "%"}, {"measurement": "remaining activity at 1 µM", "setting": "[4]", "value": 83, "unit": "%"}, {"measurement": "remaining activity at 1 µM", "setting": "[5]", "value": 63, "unit": "%"}, {"measurement": "remaining activity at 1 µM", "setting": "[6]", "value": 91, "unit": "%"}, {"measurement": "remaining activity at 1 µM", "setting": "[7]", "value": 99, "unit": "%"}, {"measurement": "remaining activity at 1 µM", "setting": "[8]; CSF1R-autoinhibited", "value": 54, "unit": "%"}, {"measurement": "remaining activity at 1 µM", "setting": "[8]; CSF1R", "value": 91, "unit": "%"}, {"measurement": "remaining activity at 1 µM", "setting": "[9]", "value": 100, "unit": "%"}, {"measurement": "remaining activity at 1 µM", "setting": "[10]", "value": 96, "unit": "%"}, {"measurement": "remaining activity at 1 µM", "setting": "[11]", "value": 100, "unit": "%"}, {"measurement": "remaining activity at 1 µM", "setting": "[12]", "value": 100, "unit": "%"}, {"measurement": "remaining activity at 1 µM", "setting": "[13]", "value": 97, "unit": "%"}, {"measurement": "remaining activity at 1 µM", "setting": "[14]; FLT3-autoinhibited", "value": 51, "unit": "%"}, {"measurement": "remaining activity at 1 µM", "setting": "[14]; FLT3", "value": 100, "unit": "%"}, {"measurement": "remaining activity at 1 µM", "setting": "[15]", "value": 45, "unit": "%"}, {"measurement": "remaining activity at 1 µM", "setting": "[16]", "value": 66, "unit": "%"}, {"measurement": "remaining activity at 1 µM", "setting": "[17]", "value": 96, "unit": "%"}, {"measurement": "remaining activity at 1 µM", "setting": "[18]", "value": 95, "unit": "%"}, {"measurement": "remaining activity at 1 µM", "setting": "[19]", "value": 53, "unit": "%"}, {"measurement": "remaining activity at 1 µM", "setting": "[20]", "value": 100, "unit": "%"}, {"measurement": "remaining activity at 1 µM", "setting": "[21]", "value": 100, "unit": "%"}, {"measurement": "remaining activity at 1 µM", "setting": "[22]", "value": 55, "unit": "%"}, {"measurement": "remaining activity at 1 µM", "setting": "[23]", "value": 53, "unit": "%"}, {"measurement": "remaining activity at 1 µM", "setting": "[24]", "value": 99, "unit": "%"}, {"measurement": "remaining activity at 1 µM", "setting": "[25]", "value": 50, "unit": "%"}, {"measurement": "remaining activity at 1 µM", "setting": "[26]", "value": 92, "unit": "%"}, {"measurement": "remaining activity at 1 µM", "setting": "[27]", "value": 100, "unit": "%"}, {"measurement": "remaining activity at 1 µM", "setting": "[28]", "value": 57, "unit": "%"}, {"measurement": "remaining activity at 1 µM", "setting": "[29]", "value": 100, "unit": "%"}, {"measurement": "remaining activity at 1 µM", "setting": "[30]", "value": 100, "unit": "%"}, {"measurement": "remaining activity at 1 µM", "setting": "[31]", "value": 100, "unit": "%"}]}]}
